Literature values as cited in patent publication US9101541B2 (Cadila Healthcare Limited, priority 2010, dated 2015).

Tests used:
[1] = oral administration

## CO[C@H]1C[C@@H]2CC[C@@H](C)[C@@](O)(O2)C(=O)C(=O)N2CCCC[C@H]2C(=O)O[C@H]([C@H](C)C[C@@H]2CC[C@@H](O)[C@H](OC)C2)CC(=O)[C@H](C)/C=C(\C)[C@@H](O)[C@@H](OC)C(=O)[C@H](C)C[C@H](C)/C=C/C=C/C=C/1C [Sirolimus, (3S,6R,7E,9R,10R,12R,14S,15E,17E,19E,21S,23S,26R,27R,34aS)-9,10,12,13,14,21,22,23,24,25,26,27,32,33,34,34a-hexadecahydro-9,27-dihydroxy-3-[(1R)-2-[(1S,3R,4R)-4-hydroxy-3-methoxycyclohexyl]-1-methylethyl]-10,21-dimethoxy-6,8,12,14,20,26-hexamethyl-23,27-epoxy-3H-pyrido[2,1-c][1,4]oxaazacyclohentriacontine-1,5,11,28,29 (4H,6H,31H)-pentone]
[1]
  time to maximum blood concentrations after dosing: 0.5 to 2.3 h
other
  oil and water solubility: poor oil and water solubility
Pharmaceutical Research, Vo. 22, No. 1, January 2005, Chi-Yuan Wu et al.
  BCS class: BCS Class 2
